Source: patent publication US20240199587A1, “HETEROCYCLIC COMPOUNDS” (Hoffmann-La Roche Inc., priority 2021, published 2024)

Each compound was assayed against T1, MAGL (Homo sapiens, UniProt Q99685) (assay: 2-AG assay (MAGL inhibitory activity, hydrolysis of 2-arachidonoylglycerol to arachidonic acid followed by mass spectrometry)). Conditions: 8 μM 2-arachidonoylglycerol, 15 min pre-incubation, 30 min incubation at RT, RapidFire MS readout.
T1 sequence (Q99685 1-303): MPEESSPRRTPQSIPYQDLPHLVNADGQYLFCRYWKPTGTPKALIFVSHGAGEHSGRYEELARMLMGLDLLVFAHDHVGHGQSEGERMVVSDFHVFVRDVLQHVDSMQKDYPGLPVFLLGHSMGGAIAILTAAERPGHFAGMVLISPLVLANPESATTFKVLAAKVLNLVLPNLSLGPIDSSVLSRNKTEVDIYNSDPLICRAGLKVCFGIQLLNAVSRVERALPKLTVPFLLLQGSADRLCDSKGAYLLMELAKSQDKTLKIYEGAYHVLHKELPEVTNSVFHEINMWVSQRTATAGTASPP
Assay type: biochemical
Procedure, shortened: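 Human MAGL ([…] final) pre-incubated 15 min at RT with compound in 50 mM TRIS, 1 mM EDTA, 0.01% Tween-20, 2.5% DMSO; 8 μM 2-AG then added for 30 min at RT. Acetonitrile quench with d8-arachidonic acid; arachidonic acid measured by RapidFire SPE–MS/MS, activity from arachidonic acid/d8 ratio.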

In order of rising IC50:
1. O=C(N1CC2(CC(Oc3ccc(C(F)(F)F)cc3)C2)C1)N1CC2(CC(n3cnc(C4CC4)n3)C2)C1 [Example 43, [6-(3-cyclopropyl-1,2,4-triazol-1-yl)-2-azaspiro[3.3]heptan-2-yl]-[6-[4-(trifluoromethyl)phenoxy]-2-azaspiro[3.3]heptan-2-yl]methanone]  0.1 nM
2. O=C(N1CC(C23CC(CNC4(C(F)(F)F)CC4)(C2)C3)C1)N1CC2(CC(n3cnc(C(F)(F)F)n3)C2)C1 [Example 420, [3-[3-[[[1-(trifluoromethyl)cyclopropyl]amino]methyl]-1-bicyclo[1.1.1]pentanyl]azetidin-1-yl]-[6-[3-(trifluoromethyl)-1,2,4-triazol-1-yl]-2-azaspiro[3.3]heptan-2-yl]methanone]  0.74 nM
3. CS(=O)(=O)c1cc(Cl)ccc1-c1ccc(C2CN(C(=O)N3CC4(CC(c5cnc(C(F)(F)F)nc5)C4)C3)C2)cc1 [Example 344, [3-[4-(4-chloro-2-methylsulfonyl-phenyl)phenyl]azetidin-1-yl]-[6-[2-(trifluoromethyl)pyrimidin-5-yl]-2-azaspiro[3.3]heptan-2-yl]methanone]  1.62 nM
4. O=C(N1CC(c2cnc(N3CC[C@H](C(F)(F)F)C3)nc2)C1)N1CC2(CC(n3cnc(C4CC4)n3)C2)C1 [Example 481, [6-(3-cyclopropyl-1,2,4-triazol-1-yl)-2-azaspiro[3.3]heptan-2-yl]-[3-[2-[(3S)-3-(trifluoromethyl)pyrrolidin-1-yl]pyrimidin-5-yl]azetidin-1-yl]methanone]  4.07 nM
5. O=C(N1CC2(CC(n3cnc(C4CC4)n3)C2)C1)N1CC2(C1)CN(S(=O)(=O)c1ccc(OC(F)(F)F)cc1)C2 [Example 230, [6-(3-cyclopropyl-1,2,4-triazol-1-yl)-2-azaspiro[3.3]heptan-2-yl]-[2-[4-(trifluoromethoxy)phenyl]sulfonyl-2,6-diazaspiro[3.3]heptan-6-yl]methanone]  4.6 nM
6. [6-[3-(1- hydroxycyclopropyl)- 1,2,4-triazol-1-yl]-2- azaspiro[3.3]heptan-2- yl]-[6-[4- (trifluoromethyl)-2- pyridyl]methyl]-2- azaspiro[3.3]heptan-2- yl]methanone [Example 400]  4.65 nM
7. O=C(N1CC2(CC(Oc3ccc(Cl)nc3)C2)C1)N1CC2(CC(n3cnc(C4CC4)n3)C2)C1 [Example 83, (6-((6-chloropyridin-3-yl)oxy)-2-azaspiro[3.3]heptan-2-yl)(6-(3-cyclopropyl-1H-1,2,4-triazol-1-yl)-2-azaspiro[3.3]heptan-2-yl)methanone]  5.2 nM
8. CC(C)(C)c1nc(C2CN(C(=O)N3CC4(CC(n5cnc(C6CC6)n5)C4)C3)C2)cs1 [Example 87, [3-(2-tert-butylthiazol-4-yl)azetidin-1-yl]-[6-(3-cyclopropyl-1,2,4-triazol-1-yl)-2-azaspiro[3.3]heptan-2-yl]methanone]  6.5 nM
9. O=C(N1C[C@H]2C[C@H](Oc3ccc(F)c(F)c3)C[C@H]2C1)N1CC2(CC(n3cnc(C4CC4)n3)C2)C1 [Example 119, [6-(3-cyclopropyl-1,2,4-triazol-1-yl)-2-azaspiro[3.3]heptan-2-yl]-[rac-(3aS,6aR)-5-(3,4-difluorophenoxy)-3,3a,4,5,6,6a-hexahydro-1H-cyclopenta[c]pyrrol-2-yl]methanone]  7.4 nM
10. O=C(N1CC(OCc2cc(C(F)(F)F)ccc2F)C1)N1CC2(CC(n3cnc(C4CC4)n3)C2)C1 [Example 73, (6-(3-cyclopropyl-1H-1,2,4-triazol-1-yl)-2-azaspiro[3.3]heptan-2-yl)(3-((2-fluoro-5-(trifluoromethyl)benzyl)oxy)azetidin-1-yl)methanone]  8.2 nM
11. O=C(N1CC(C23CC(c4nnc(C5CC5)o4)(C2)C3)C1)N1CC2(CC(n3cnc(C4CC4)n3)C2)C1 [Example 436, [3-[3-(5-cyclopropyl-1,3,4-oxadiazol-2-yl)-1-bicyclo[1.1.1]pentanyl]azetidin-1-yl]-[6-(3-cyclopropyl-1,2,4-triazol-1-yl)-2-azaspiro[3.3]heptan-2-yl]methanone]  9.82 nM
12. O=C(N1CC2(CC(n3cnc(C4CC4)n3)C2)C1)N1CC2(CN(Cc3cnc(C(F)(F)F)cn3)C2)C1 [Example 473, [6-(3-cyclopropyl-1,2,4-triazol-1-yl)-2-azaspiro[3.3]heptan-2-yl]-[6-[[5-(trifluoromethyl)pyrazin-2-yl]methyl]-2,6-diazaspiro[3.3]heptan-2-yl]methanone]  11.4 nM
13. N#Cc1cc(CC2CC3(C2)CN(C(=O)N2CC4(CC(c5ccc(C(F)(F)F)nc5)C4)C2)C3)ccc1C(F)(F)F [Example 536, 2-(trifluoromethyl)-5-[[2-[6-[6-(trifluoromethyl)-3-pyridyl]-2-azaspiro[3.3]heptane-2-carbonyl]-2-azaspiro[3.3]heptan-6-yl]methyl]benzonitrile]  13.9 nM
14. O=C(N1CC(OCc2cncc(C(F)(F)F)c2)C1)N1CC2(CC(n3cnc(C4CC4)n3)C2)C1 [Example 136, [6-(3-cyclopropyl-1,2,4-triazol-1-yl)-2-azaspiro[3.3]heptan-2-yl]-[3-[[5-(trifluoromethyl)-3-pyridyl]methoxy]azetidin-1-yl]methanone]  14 nM
15. O=C(N1CC2(CCN(Cc3ccc(C(F)(F)F)cn3)CC2)C1)N1CC2(CC(n3cnc(C4(O)CC4)n3)C2)C1 [Example 391, [6-[3-(1-hydroxycyclopropyl)-1,2,4-triazol-1-yl]-2-azaspiro[3.3]heptan-2-yl]-[7-[[5-(trifluoromethyl)-2-pyridyl]methyl]-2,7-diazaspiro[3.5]nonan-2-yl]methanone]  14.1 nM
16. CS(=O)(=O)c1ccc(CN2CCC3(CC2)CN(C(=O)N2CC4(CC(n5cnc(C6CC6)n5)C4)C2)C3)cc1 [Example 486, [6-(3-cyclopropyl-1,2,4-triazol-1-yl)-2-azaspiro[3.3]heptan-2-yl]-[7-[(4-methylsulfonylphenyl)methyl]-2,7-diazaspiro[3.5]nonan-2-yl]methanone]  14.6 nM
17. O=C(N1CC2(CC(n3cnc(C4CC4)n3)C2)C1)N1CC2(C1)CN(S(=O)(=O)C13CC(C(F)(F)F)(C1)C3)C2 [Example 474, [6-(3-cyclopropyl-1,2,4-triazol-1-yl)-2-azaspiro[3.3]heptan-2-yl]-[2-[[3-(trifluoromethyl)-1-bicyclo[1.1.1]pentanyl]sulfonyl]-2,6-diazaspiro[3.3]heptan-6-yl]methanone]  24.5 nM
18. CS(=O)(=O)c1cccc(CN2CCC3(CC2)CN(C(=O)N2CC4(CC(n5cnc(C6CC6)n5)C4)C2)C3)c1 [Example 485, [6-(3-cyclopropyl-1,2,4-triazol-1-yl)-2-azaspiro[3.3]heptan-2-yl]-[7-[(3-methylsulfonylphenyl)methyl]-2,7-diazaspiro[3.5]nonan-2-yl]methanone]  26.7 nM
19. Cc1noc(C)c1S(=O)(=O)N1CC2(CN(C(=O)N3CC4(CC(n5cnc(C6CC6)n5)C4)C3)C2)C1 [Example 281, [6-(3-cyclopropyl-1,2,4-triazol-1-yl)-2-azaspiro[3.3]heptan-2-yl]-[2-(3,5-dimethylisoxazol-4-yl)sulfonyl-2,6-diazaspiro[3.3]heptan-6-yl]methanone]  41.3 nM
20. O=C(N1CC(OCc2ccc(C(F)(F)F)cc2)C1)N1CC2(CC(n3cnc(C4CC4)c3)C2)C1 [Example 101, [6-(4-cyclopropylimidazol-1-yl)-2-azaspiro[3.3]heptan-2-yl]-[3-[[4-(trifluoromethyl)phenyl]methoxy]azetidin-1-yl]methanone]  42.1 nM
21. CCc1cn(C2CC3(C2)CN(C(=O)c2ccc(-c4noc(C(C)(C)C)n4)cc2)C3)cn1 [Example 157, [4-(5-tert-butyl-1,2,4-oxadiazol-3-yl)phenyl]-[6-(4-ethylimidazol-1-yl)-2-azaspiro[3.3]heptan-2-yl]methanone]  43.7 nM
22. O=C(N1CC(OCc2ccc(S(=O)(=O)C(F)(F)F)cc2)C1)N1CC2(CC(n3cnc(C4(O)CC4)n3)C2)C1 [Example 399, [6-[3-(1-hydroxycyclopropyl)-1,2,4-triazol-1-yl]-2-azaspiro[3.3]heptan-2-yl]-[3-[[4-(trifluoromethylsulfonyl)phenyl]methoxy]azetidin-1-yl]methanone]  102 nM
23. O=C(N1CC2(CC(n3cnc(C4CC4)n3)C2)C1)N1CC2(C1)CN(S(=O)(=O)c1cccnc1)C2 [Example 317, [6-(3-cyclopropyl-1,2,4-triazol-1-yl)-2-azaspiro[3.3]heptan-2-yl]-[2-(3-pyridylsulfonyl)-2,6-diazaspiro[3.3]heptan-6-yl]methanone]  274 nM
24. NC(=O)c1ccccc1S(=O)(=O)N1CC2(CN(C(=O)N3CC4(CC(n5cnc(C6CC6)n5)C4)C3)C2)C1 [Example 323, 2-[[6-[6-(3-cyclopropyl-1,2,4-triazol-1-yl)-2-azaspiro[3.3]heptane-2-carbonyl]-2,6-diazaspiro[3.3]heptan-2-yl]sulfonyl]benzamide]  365 nM
25. O=C(N1CC2(CC(c3ccc(C(F)(F)F)nc3)C2)C1)N1CC2(CC(c3ccc(C(F)(F)F)nc3)C2)C1 [Example 522, bis[6-[6-(trifluoromethyl)-3-pyridyl]-2-azaspiro[3.3]heptan-2-yl]methanone]  849 nM
26. Cc1cc(C2CN(C(=O)N3CC4(CC(n5cnc(C6CC6)n5)C4)C3)C2)ccc1OC(F)(F)F [Example 182, [6-(3-cyclopropyl-1,2,4-triazol-1-yl)-2-azaspiro[3.3]heptan-2-yl]-[3-[3-methyl-4-(trifluoromethoxy)phenyl]azetidin-1-yl]methanone]  2580 nM
